Data from US7018989B2, “Chemical compounds” (University College Cardiff Consultants, LTD, priority 1995, dated 2006).
Where two headings read alike, the source gives them in different places.

What was measured:
C8166 cells = assay: Toxicity in C8166 cells (MTT-Formazen); type: cell-based; conditions: Table 3
Experimental: (§1) C8166 cells. Cells were grown in RPMI 1640 with 10% calf serum. 4×10^4 cells per microtiter plate well were mixed with 5-fold dilutions of compound prior to addition of 10 CCID50 units of III-B strain of HIV-1 and incubated for 5–7 days (Betbeder et al. Antiviral Chem. Chemother. 1, 241–247, 1990). Formation of syncytia was examined from 2 days post-infection. Culture fluid was collected at 5–7 days and gp120 antigen production measured by ELISA (Mahmood and Hay, J. Immunol. Meth., 151, 9–13, 1992). […] Cell viability of infected and uninfected cells were assessed by the MTT-Formazen method (Pauwels et al. J. Virol. Meth. 20, 309–321, 1988).
(§2) Each assay was carried out in duplicate, on at least two separate occasions, and data quoted are the average of each separate assay.

MT-4 cells = assay: Toxicity to MT-4 cells; type: cell-based, human; conditions: read-out: CC50 MT4: CC50 for toxicity to MT-4 cells
Experimental: (§3) Cells were infected with HIV-1 as previously described [Balzarini et al. AIDS (1991), 5, 21–28]. Briefly, 5×10^5 cells per milliliter were infected with HIV-1 or HIV-2 at 100 CCID50 (50% cell culture infective dose) per milliliter of cell suspension. Then 100 μL of the infected cell suspension was transferred to microtiter plate wells and mixed with 100 μL of the appropriate dilutions of the test compounds. After 4 days giant cell formation was recorded microscopically in the HIV-infected cell cultures [CEM], and after 5 days the number of viable cells was determined by trypan blue staining of the HIV-infected cell cultures [MT4].
(§4) The data columns are, in order: • HIV1 MT4: EC50 in μM for inhibition of HIV-1 in MT4 cells. • HIV2 MT4: EC50 in μM for inhibition of HIV-2 in MT4 cells. • CC50 MT4: CC50 in μM for toxicity to MT-4 cells. • HIV1 CEM: EC50 in μM for inhibition of HIV-1 in CEM cells. • HIV2 CEM: EC50 in μM for inhibition of HIV-2 in CEM cells. • HIV2 CEM-TK-: EC50 in μM for inhibition of HIV-2 in CEM/TK^− cells. • CC50 CEM: CC50 in μM for toxicity to CEM cells. • EC50 MSV: EC50 in μM for inhibition of MSV • MCC MSV: Minimum cytotoxic concentration in MSV assay

HIV-1 [1] = assay: Inhibition of HIV-1 in MT4 cells; type: cell-based; conditions: read-out: HIV1 MT4: EC50 for inhibition of HIV-1 in MT4 cells
Experimental: as §3, §4

HIV-2 [2] = assay: Inhibition of HIV-2 in MT4 cells; type: cell-based; conditions: read-out: HIV2 MT4: EC50 for inhibition of HIV-2 in MT4 cells
Experimental: as §3, §4

HIV-1 [3] = assay: microbe, parasite or virus in culture; conditions: read-out: HIV1 CEM: EC50 for inhibition of HIV-1 in CEM cells
Summary of the method: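 Giant cell formation, recorded under the microscope on day 4, served as the end point for CEM cells, while MT-4 viability was determined by trypan blue exclusion on day 5. Cell suspensions (5×10^5/mL) received virus at 100 CCID50/mL before compound addition.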

HIV-2 [4] = assay: Inhibition of HIV-2 in CEM/TK- cells; type: cell-based
Summary of the method: (§5)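 Infection used 100 CCID50 per mL on 5×10^5 cells/mL, followed by exposure to serial compound dilutions. Read-out: microscopic giant cell scoring after 4 days (CEM); trypan blue viable cell count after 5 days (MT-4).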

HIV-2 [5] = assay: Inhibition of HIV-2 in CEM cells (giant cell formation); type: cell-based; conditions: read-out: HIV2 CEM: EC50 for inhibition of HIV-2 in CEM cells
Summary of the method: as §5

CEM cells = assay: Toxicity to CEM cells; type: cell-based, human; conditions: Table 6; mean of two or more repeat experiments
Experimental: as §3, §4

III-B strain of HIV-1 = assay: microbe, parasite or virus in culture; type: cell-based; conditions: for EC50: HIV1 in C8166 cells, Table 3, read-out: Activity EC50
Experimental: as §1, §2

[6] = Table 6, mean of two or more repeat experiments
[7] = Table 6, mean of two or more repeat experiments, read-out: HIV2 CEM-TK-: EC50 for inhibition of HIV-2 in CEM/TK^− cells
[8] = CEM/TK- cells, HIV-2, read-out: HIV2 CEM-TK-: EC50 for inhibition of HIV-2 in CEM/TK- cells

Compound | CC50 (C8166 cells) [µM] | CC50 (MT-4 cells; [6]) [µM] | EC50 (HIV-1 [1]; [6]) [µM] | EC50 (HIV-2 [2]; [6]) [µM] | EC50 (HIV-1 [3]; [6]) [µM] | EC50 (HIV-2 [4]; [7]) [µM] | EC50 (HIV-2 [5]; [6]) [µM] | CC50 (CEM cells) [µM] | Selectivity CC50/EC50 × 10^3 (III-B strain of HIV-1) | EC50 (III-B strain of HIV-1) [µM] | CC50 (MT-4 cells; MT-4 cells) [µM] | EC50 (HIV-1 [1]; MT4 cells, HIV-1) [µM] | EC50 (HIV-2 [2]; MT4 cells, HIV-2) [µM] | EC50 (HIV-1 [3]; CEM cells, HIV-1) [µM] | EC50 (HIV-2 [4]; [8]) [µM] | EC50 (HIV-2 [5]; CEM cells, HIV-2) [µM]
CCc1ccc(OP(=O)(N[C@@H](C)C(=O)OC)OCC2C=CC(n3cc(C)c(=O)[nH]c3=O)O2)cc1 (some centres unmarked) [Compound 323, 2′,3′-dideoxy-2′,3′-didehydrothymidine 5′-(p-ethylphenylmethoxyalaninyl) Phosphoramidate] | 50 | > 100 | 0.057 | 0.063 | 0.07 | 0.06 | 0.16 | 60 | 15.6 × 10^3 | 0.0032 | – | – | – | – | – | –
COC(=O)C(Cc1ccccc1)NP(=O)(OCC1C=CC(n2cc(C)c(=O)[nH]c2=O)O1)OCC(Cl)(Cl)Cl (centres unmarked) [Compound 325] | – | > 100 | 0.44 | 0.5 | 1 | 0.7 | 2 | – | – | – | – | – | – | – | – | –
CCCOP(=O)(N[C@@H](C)C(=O)OC)OC[C@@H]1C=C[C@H](n2cc(C)c(=O)[nH]c2=O)O1 (some centres unmarked) [Compound 326] | – | > 250 | 36 | 84 | > 230 | 135 | > 230 | ≥ 250 | – | – | – | – | – | – | – | –
COC(=O)[C@H](C)NP(=O)(OCC1OC(n2cc(C)c(=O)[nH]c2=O)CC1N=[N+]=[N-])Oc1ccccc1 (stereo partly drawn) [Compound 462, 3′-Deoxy-3′-β-azidothymidine 5′-(phenylmethoxylalaninyl) phosphoramidate] | – | – | – | – | – | – | – | – | – | – | 121 | 33 | 11 | 27.5 | 30 | 40
COC(=O)C(C)NP(=O)(OCC1OC(n2cc(C)c(=O)[nH]c2=O)CC1N=[N+]=[N-])Oc1cccc(C(F)(F)F)c1 (stereo not drawn) [Compound 536, 3′-Deoxy-3′β-azidothymidine 5′-(m-trifluoromethylphenylmethoxylalaninyl) phosphoramidate] | – | – | – | – | – | – | – | – | – | – | 104 | 0.45 | 0.9 | 1 | 3 | 2
COC(=O)[C@H](C)NP(=O)(OCC1OC(n2cc(C)c(=O)[nH]c2=O)CC1N=[N+]=[N-])Oc1cc(Cl)cc(Cl)c1 (stereo partly drawn) [Compound 550, 3′-Deoxy-3′-β-azidothymidine 5′-(3,5-dichlorophenylmethoxylalaninyl) phosphoramidate] | – | – | – | – | – | – | – | – | – | – | 98 | 0.5 | 1 | 1.4 | 12 | 3
CCOP(=O)(N[C@@H](C)C(=O)OC)OC[C@@H]1C=C[C@H](n2cc(C)c(=O)[nH]c2=O)O1 (some centres unmarked) [Compound 564] | – | ≥ 250 | 28.5 | 62.6 | > 48 | > 48 | > 240 | ≥ 250 | – | – | – | – | – | – | – | –
COC(=O)[C@H](C)NP(=O)(OC)OC[C@@H]1C=C[C@H](n2cc(C)c(=O)[nH]c2=O)O1 (some centres unmarked) [Compound 740] | – | > 250 | 25.4 | 50.9 | 20 | > 250 | 50 | > 250 | – | – | – | – | – | – | – | –
COC(=O)C(C)NP(=O)(OC[C@@H]1C=C[C@H](n2cc(C)c(=O)[nH]c2=O)O1)Oc1c(F)c(F)c(F)c(F)c1F (some centres unmarked) [Compound 779, 2′,3′-dideoxy-2′,3′-didehydrothymidine-5′-(2,3,4,5,6-pentafluorophenyl-N-methylalaninyl) phosphoramidate] | 80 | 82 | 1.72 | 4.01 | 2.5 | 8.5 | 3.7 | 115 | 1.25 × 10^3 | 0.064 | – | – | – | – | – | –
CCCCCCOC(=O)[C@H](C)NP(=O)(OCC1C=CC(n2cc(C)c(=O)[nH]c2=O)O1)Oc1ccccc1 (some centres unmarked) [Compound 862, 2′,3′-dideoxy-2′,3′-didehydrothymidine 5′-(phenyl N-hexyloxyalaninyl) phosphoramidate] | 500 | – | – | – | 0.06 | 0.033 | 0.055 | 48 | 417 × 10^3 | 0.0012 | – | – | – | – | – | –
Cc1cn(C2C=CC(COP(=O)(NC(C)C(=O)OCc3ccccc3)Oc3ccc(Br)cc3Br)O2)c(=O)[nH]c1=O (centres unmarked) [Compound 868, 2′,3′-dideoxy-2′, 3′-didehydrothymidine-5′-(2,4-dibromophenyl N-benzylalaninyl) phosphoramidate] | 500 | – | – | – | 0.2 | 0.2 | 0.2 | 50 | 156 × 10^3 | 0.0032 | – | – | – | – | – | –
Cc1cn(C2C=CC(COP(=O)(NC(Cc3ccccc3)C(=O)OCc3ccccc3)Oc3ccccc3)O2)c(=O)[nH]c1=O (centres unmarked) [Compound 877, 2′,3′-dideoxy-2′,3′-didehydrothymidine-5′-(phenyl N-methoxyglycinyl) phosphoramidate] | 80 | – | – | – | 0.6 | 0.24 | 0.6 | 44 | 267 × 10^3 | 0.0003 | – | – | – | – | – | –
Cc1cn([C@H]2C=C[C@@H](COP(=O)(NC(Cc3ccccc3)C(=O)OC(C)(C)C)Oc3ccccc3)O2)c(=O)[nH]c1=O (some centres unmarked) [Compound 878, 2′,3′-dideoxy-2′,3′-didehydrothymidine-5′-(phenyl N-tert-butylphenylalaninyl) phosphoramidate] | 150 | – | – | – | 2 | 0.65 | 2 | 80 | 0.9 × 10^3 | 0.16 | – | – | – | – | – | –
Cc1cn(C2C=CC(COP(=O)(N[C@@H](C)C(=O)OC3CCCCC3)Oc3ccccc3)O2)c(=O)[nH]c1=O (some centres unmarked) [Compound 892, 2′,3′-dideoxy-2′,3′-didehydrothymidine 5′-(phenyl N-cyclohexyloxyalaninyl) phosphoramidate] | 500 | – | – | – | 0.065 | 0.09 | 0.075 | 51.4 | 312 × 10^3 | 0.0016 | – | – | – | – | – | –
Cc1cn([C@H]2C=C[C@@H](COP(=O)(NC(C)C(=O)OC(C)(C)C)Oc3ccccc3)O2)c(=O)[nH]c1=O (some centres unmarked) [Compound 893, 2′,3′-dideoxy-2′,3′-didehydrothymidine 5′-(phenyl N-tButyloxyalaninyl) phosphoramidate] | > 1000 | – | – | – | 0.85 | 0.74 | 1.1 | ≥ 250 | >5.0 × 10^3 | 0.2 | – | – | – | – | – | –
Cc1cn(C2CC(N=[N+]=[N-])C(CO)O2)c(=O)[nH]c1=O (centres unmarked) [Cpd 499] | – | – | – | – | – | – | – | – | – | – | > 250 | 0.9 | 2.3 | 3 | > 250 | 4
